Earlier results as cited in US9192591B2, “Method and composition for treating alzheimer-type dementia” (priority 2008, dated 2015).

Legend:
[1] = tested on: patients with dementias of the Alzheimer type; settings: donepezil 5-10 mg per day; rivastigmine 1-4 and 6-12 mg per day; galantamine 8-32 mg per day
[2] = tested on: patients with Alzheimer's disease treated with tacrine; settings: propantheline 7.5 mg to 15 mg four times a day
[3] = tested on: patients with Alzheimer's disease; settings: skin patches replacing immediate release tablets

| SMILES | benefits on cognitive and global measures relevant to dementia [1] | effect on peripheral cholinergic gastrointestinal side effects of tacrine (cramping, nausea, vomiting, diarrhea) [2] | patients who discontinued because of vomiting (patients; compared to less than 1% on placebo) | patients in whom weight declined (patients; during rivastigmine therapy) | patients reporting loss of appetite (patients; in vivo) | patients who become nauseated (patients; oral 6-12 mg/day) | patients who vomit at least once (patients; oral 6-12 mg/day) | patients with mild or moderate vomiting (patients; rivastigmine-treated patients) | patients with severe vomiting (patients; rivastigmine-treated patients) | amount of cognitive improvement and side effects on doubling the dose [3] |
| --- | --- | --- | --- | --- | --- | --- | --- | --- | --- | --- |
| COc1cc2c(cc1OC)C(=O)C(CC1CCN(Cc3ccccc3)CC1)C2 (racemic) [donepezil, (±)-2,3-dihydro-5,6-dimethoxy-2-[[1-(phenylmethyl)-4-piperidinyl]methyl]-1H-inden-1-one] | small, but statistically significant, benefits | – | – | – | – | – | – | – | – | – |
| CC(C)[N+](C)(CCOC(=O)C1c2ccccc2Oc2ccccc21)C(C)C [propantheline] | – | ameliorated | – | – | – | – | – | – | – | – |
| CCN(C)C(=O)Oc1cccc([C@H](C)N(C)C)c1 [rivastigmine, (S)—N-Ethyl-N-methyl-3-[1-(dimethylamino)ethyl]-phenyl carbamate] | small, but statistically significant, benefits | – | Five | 25% | 17% | About half | about one-third | 14% | 2% | significantly increased the amount of cognitive improvement in patients with Alzheimer's disease without increasing side effects |
